{"source": "paper PMC12090182", "about": "“Repurposing of the RIPK1-Selective Benzo[1,4]oxazepin-4-one Scaffold for the Development of a Type III LIMK1/2 Inhibitor” (ACS Chemical Biology, 2025)", "assay_in_all_cases": "biochemical", "format_in_all_cases": "binding", "key": {"[1]": {"target": "468 kinases including some pathogenic mutants (Homo sapiens, UniProt Q15139)", "settings": "PRKD1 (Entrez PRKD1), 100 nM; read-out: Percent Control"}, "[2]": {"target": "468 kinases including some pathogenic mutants (Homo sapiens, UniProt Q13043)", "sequence (Q13043 whole entry, change not shown)": "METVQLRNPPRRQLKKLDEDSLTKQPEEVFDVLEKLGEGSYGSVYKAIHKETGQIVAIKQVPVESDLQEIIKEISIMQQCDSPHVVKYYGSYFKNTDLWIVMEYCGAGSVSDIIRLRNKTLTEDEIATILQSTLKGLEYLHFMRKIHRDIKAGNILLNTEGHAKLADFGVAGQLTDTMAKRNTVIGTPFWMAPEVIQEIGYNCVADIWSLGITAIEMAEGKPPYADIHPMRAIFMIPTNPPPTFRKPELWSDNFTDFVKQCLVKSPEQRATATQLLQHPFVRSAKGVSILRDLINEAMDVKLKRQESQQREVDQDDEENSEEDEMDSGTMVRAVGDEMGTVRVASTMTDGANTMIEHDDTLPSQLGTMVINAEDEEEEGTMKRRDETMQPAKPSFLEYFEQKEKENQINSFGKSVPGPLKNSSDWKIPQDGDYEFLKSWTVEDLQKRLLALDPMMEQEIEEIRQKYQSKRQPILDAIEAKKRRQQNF", "settings": "MST1 (Entrez STK4), 100 nM; read-out: Percent Control"}, "[3]": {"target": "468 kinases including some pathogenic mutants (Homo sapiens, UniProt Q9UF33)", "settings": "EPHA6 (Entrez EPHA6), 100 nM; read-out: Percent Control"}, "[4]": {"target": "468 kinases including some pathogenic mutants (Homo sapiens, UniProt Q08881)", "settings": "ITK (Entrez ITK), 100 nM; read-out: Percent Control"}, "[5]": {"target": "468 kinases including some pathogenic mutants (Homo sapiens, UniProt Q86YV6)", "sequence (Q86YV6 whole entry, change not shown)": "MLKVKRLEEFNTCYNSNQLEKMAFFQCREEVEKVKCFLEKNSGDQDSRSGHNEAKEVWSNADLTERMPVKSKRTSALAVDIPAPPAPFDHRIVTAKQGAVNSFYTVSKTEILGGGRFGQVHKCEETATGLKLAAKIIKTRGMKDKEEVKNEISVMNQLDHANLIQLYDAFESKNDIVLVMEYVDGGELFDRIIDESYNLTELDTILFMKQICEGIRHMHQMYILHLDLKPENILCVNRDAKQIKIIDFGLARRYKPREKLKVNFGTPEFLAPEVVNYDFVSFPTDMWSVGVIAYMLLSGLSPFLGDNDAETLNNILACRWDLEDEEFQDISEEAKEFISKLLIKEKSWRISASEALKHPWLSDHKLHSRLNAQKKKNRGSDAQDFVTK", "settings": "MYLK4 (Entrez MYLK4), 1000 nM; read-out: Percent Control"}, "[6]": {"target": "468 kinases including some pathogenic mutants (Homo sapiens, UniProt Q9UBE8)", "settings": "NLK (Entrez NLK), 100 nM; read-out: Percent Control"}, "[7]": {"target": "468 kinases including some pathogenic mutants (Homo sapiens, UniProt P21127)", "sequence (P21127 whole entry, change not shown)": "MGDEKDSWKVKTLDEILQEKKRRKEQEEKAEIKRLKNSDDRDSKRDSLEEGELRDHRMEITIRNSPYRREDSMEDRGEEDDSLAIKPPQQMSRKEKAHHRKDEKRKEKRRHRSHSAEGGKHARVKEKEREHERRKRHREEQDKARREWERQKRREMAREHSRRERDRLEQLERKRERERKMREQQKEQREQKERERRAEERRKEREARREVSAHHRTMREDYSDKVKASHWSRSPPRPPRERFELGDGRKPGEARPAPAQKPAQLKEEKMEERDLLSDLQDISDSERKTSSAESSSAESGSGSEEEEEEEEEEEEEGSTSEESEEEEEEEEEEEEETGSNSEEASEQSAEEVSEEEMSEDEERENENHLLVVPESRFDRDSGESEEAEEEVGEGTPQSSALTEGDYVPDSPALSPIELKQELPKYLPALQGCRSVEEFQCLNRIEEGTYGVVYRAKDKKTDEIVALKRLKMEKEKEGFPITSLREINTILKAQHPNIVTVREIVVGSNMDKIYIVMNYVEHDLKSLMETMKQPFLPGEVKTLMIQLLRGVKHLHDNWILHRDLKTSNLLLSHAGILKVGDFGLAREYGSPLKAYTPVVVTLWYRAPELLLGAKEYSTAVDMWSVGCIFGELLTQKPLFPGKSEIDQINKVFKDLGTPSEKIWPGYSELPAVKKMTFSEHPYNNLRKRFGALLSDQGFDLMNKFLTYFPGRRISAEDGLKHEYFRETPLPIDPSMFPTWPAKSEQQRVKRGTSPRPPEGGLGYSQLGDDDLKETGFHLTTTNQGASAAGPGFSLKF", "settings": "CDC2L1 (Entrez CDK11B), 100 nM; read-out: Percent Control"}, "[8]": {"target": "468 kinases including some pathogenic mutants (Homo sapiens, UniProt P45985)", "settings": "MEK4 (Entrez MAP2K4), 1000 nM; read-out: Percent Control"}, "[9]": {"target": "468 kinases including some pathogenic mutants (Homo sapiens, UniProt P00533, G719S)", "settings": "read-out: Percent Control"}, "[10]": {"target": "468 kinases including some pathogenic mutants (Homo sapiens, UniProt P22455)", "settings": "FGFR4 (Entrez FGFR4), 100 nM; read-out: Percent Control"}, "[11]": {"target": "468 kinases including some pathogenic mutants (Homo sapiens, UniProt P07949, V804L)", "settings": "read-out: Percent Control"}, "[12]": {"target": "468 kinases including some pathogenic mutants (Homo sapiens, UniProt Q15746)", "settings": "MYLK (Entrez MYLK), 100 nM; read-out: Percent Control"}, "[13]": {"target": "468 kinases including some pathogenic mutants (Homo sapiens, UniProt P51955)", "settings": "NEK2 (Entrez NEK2), 1000 nM; read-out: Percent Control"}, "[14]": {"target": "468 kinases including some pathogenic mutants (Homo sapiens, UniProt P54762)", "settings": "EPHB1 (Entrez EPHB1), 100 nM; read-out: Percent Control"}, "[15]": {"target": "468 kinases including some pathogenic mutants (Homo sapiens, UniProt Q9BZL6)", "settings": "PRKD2 (Entrez PRKD2), 100 nM; read-out: Percent Control"}, "[16]": {"target": "468 kinases including some pathogenic mutants (Homo sapiens, UniProt P50750)", "settings": "CDK9 (Entrez CDK9), 100 nM; read-out: Percent Control"}, "[17]": {"target": "468 kinases including some pathogenic mutants (Homo sapiens, UniProt Q13470)", "sequence (Q13470 whole entry, change not shown)": "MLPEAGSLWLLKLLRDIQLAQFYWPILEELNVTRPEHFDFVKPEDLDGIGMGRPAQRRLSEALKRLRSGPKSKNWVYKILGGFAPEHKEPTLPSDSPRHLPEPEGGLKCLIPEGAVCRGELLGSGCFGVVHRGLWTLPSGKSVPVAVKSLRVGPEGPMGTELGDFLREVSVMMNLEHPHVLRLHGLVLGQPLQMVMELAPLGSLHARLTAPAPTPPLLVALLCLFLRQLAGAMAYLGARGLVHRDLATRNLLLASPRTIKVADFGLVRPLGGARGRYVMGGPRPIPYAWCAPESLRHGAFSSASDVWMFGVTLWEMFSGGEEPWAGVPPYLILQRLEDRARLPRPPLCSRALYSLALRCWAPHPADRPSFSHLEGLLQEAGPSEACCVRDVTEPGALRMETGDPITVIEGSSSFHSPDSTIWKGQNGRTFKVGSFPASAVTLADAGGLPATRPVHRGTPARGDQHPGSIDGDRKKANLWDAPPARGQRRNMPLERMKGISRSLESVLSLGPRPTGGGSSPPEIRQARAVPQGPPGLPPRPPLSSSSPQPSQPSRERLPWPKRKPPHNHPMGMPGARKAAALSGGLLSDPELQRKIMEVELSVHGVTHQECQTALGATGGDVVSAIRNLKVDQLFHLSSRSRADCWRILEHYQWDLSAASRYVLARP", "settings": "TNK1 (Entrez TNK1), 100 nM; read-out: Percent Control"}, "[18]": {"target": "468 kinases including some pathogenic mutants (Homo sapiens, UniProt Q9BYT3)", "settings": "STK33 (Entrez STK33), 1000 nM; read-out: Percent Control"}, "[19]": {"target": "468 kinases including some pathogenic mutants (Homo sapiens, UniProt Q6P2M8)", "settings": "CAMK1B (Entrez PNCK), 100 nM; read-out: Percent Control"}, "[20]": {"target": "468 kinases including some pathogenic mutants (Homo sapiens, UniProt Q02763)", "settings": "TIE2 (Entrez TEK), 1000 nM; read-out: Percent Control"}, "[21]": {"target": "468 kinases including some pathogenic mutants (Homo sapiens, UniProt Q9P289)", "settings": "MST4 (Entrez MST4), 100 nM; read-out: Percent Control"}, "[22]": {"target": "468 kinases including some pathogenic mutants (Homo sapiens, UniProt Q04759)", "sequence (Q04759 whole entry, change not shown)": "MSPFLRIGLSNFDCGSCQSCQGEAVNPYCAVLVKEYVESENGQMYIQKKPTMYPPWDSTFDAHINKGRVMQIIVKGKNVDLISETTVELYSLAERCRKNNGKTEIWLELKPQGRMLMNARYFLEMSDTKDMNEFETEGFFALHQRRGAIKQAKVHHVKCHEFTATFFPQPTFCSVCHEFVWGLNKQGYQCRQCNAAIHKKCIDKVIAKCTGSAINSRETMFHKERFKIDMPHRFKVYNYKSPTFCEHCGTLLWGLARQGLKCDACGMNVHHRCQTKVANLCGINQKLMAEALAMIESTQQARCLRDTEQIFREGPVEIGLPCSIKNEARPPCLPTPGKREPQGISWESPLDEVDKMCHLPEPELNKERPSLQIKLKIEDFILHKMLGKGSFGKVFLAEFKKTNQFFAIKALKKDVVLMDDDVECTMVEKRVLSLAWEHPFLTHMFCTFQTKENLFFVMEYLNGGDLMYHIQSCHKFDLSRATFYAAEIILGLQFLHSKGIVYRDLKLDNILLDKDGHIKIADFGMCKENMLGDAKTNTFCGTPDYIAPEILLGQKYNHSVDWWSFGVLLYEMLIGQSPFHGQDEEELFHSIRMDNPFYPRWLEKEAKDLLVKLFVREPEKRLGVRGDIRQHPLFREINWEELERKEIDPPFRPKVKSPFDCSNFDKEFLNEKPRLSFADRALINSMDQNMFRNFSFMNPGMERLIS", "settings": "PRKCQ (Entrez PRKCQ), 100 nM; read-out: Percent Control"}, "[23]": {"target": "468 kinases including some pathogenic mutants (Homo sapiens, UniProt P07947)", "settings": "YES (Entrez YES1), 100 nM; read-out: Percent Control"}, "[24]": {"target": "468 kinases including some pathogenic mutants (Homo sapiens, UniProt P36888, N841I)", "settings": "read-out: Percent Control"}, "[25]": {"target": "468 kinases including some pathogenic mutants (Homo sapiens, UniProt P36888, D835V)", "settings": "read-out: Percent Control"}, "[26]": {"target": "468 kinases including some pathogenic mutants (Homo sapiens, UniProt Q13554)", "sequence (Q13554 whole entry, change not shown)": "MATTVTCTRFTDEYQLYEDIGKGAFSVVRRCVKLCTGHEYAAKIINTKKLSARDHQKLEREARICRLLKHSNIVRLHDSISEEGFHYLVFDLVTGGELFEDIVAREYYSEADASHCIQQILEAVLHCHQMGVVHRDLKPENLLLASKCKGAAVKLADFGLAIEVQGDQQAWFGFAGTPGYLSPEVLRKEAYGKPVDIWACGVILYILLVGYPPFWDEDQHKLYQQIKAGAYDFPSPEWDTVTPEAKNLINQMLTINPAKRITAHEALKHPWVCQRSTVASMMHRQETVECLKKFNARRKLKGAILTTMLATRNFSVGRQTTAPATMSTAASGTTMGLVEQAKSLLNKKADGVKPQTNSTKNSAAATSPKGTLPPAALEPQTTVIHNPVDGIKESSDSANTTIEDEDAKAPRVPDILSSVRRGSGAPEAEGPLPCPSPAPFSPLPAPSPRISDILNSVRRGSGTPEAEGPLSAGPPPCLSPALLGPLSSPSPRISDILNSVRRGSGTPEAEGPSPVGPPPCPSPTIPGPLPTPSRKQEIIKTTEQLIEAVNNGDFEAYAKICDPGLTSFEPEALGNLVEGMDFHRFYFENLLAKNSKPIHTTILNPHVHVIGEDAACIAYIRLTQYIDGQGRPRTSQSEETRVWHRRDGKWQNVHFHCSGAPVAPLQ", "settings": "CAMK2B (Entrez CAMK2B), 100 nM; read-out: Percent Control"}, "[27]": {"target": "468 kinases including some pathogenic mutants (Homo sapiens, UniProt Q9UK32)", "sequence (Q9UK32 whole entry, change not shown)": "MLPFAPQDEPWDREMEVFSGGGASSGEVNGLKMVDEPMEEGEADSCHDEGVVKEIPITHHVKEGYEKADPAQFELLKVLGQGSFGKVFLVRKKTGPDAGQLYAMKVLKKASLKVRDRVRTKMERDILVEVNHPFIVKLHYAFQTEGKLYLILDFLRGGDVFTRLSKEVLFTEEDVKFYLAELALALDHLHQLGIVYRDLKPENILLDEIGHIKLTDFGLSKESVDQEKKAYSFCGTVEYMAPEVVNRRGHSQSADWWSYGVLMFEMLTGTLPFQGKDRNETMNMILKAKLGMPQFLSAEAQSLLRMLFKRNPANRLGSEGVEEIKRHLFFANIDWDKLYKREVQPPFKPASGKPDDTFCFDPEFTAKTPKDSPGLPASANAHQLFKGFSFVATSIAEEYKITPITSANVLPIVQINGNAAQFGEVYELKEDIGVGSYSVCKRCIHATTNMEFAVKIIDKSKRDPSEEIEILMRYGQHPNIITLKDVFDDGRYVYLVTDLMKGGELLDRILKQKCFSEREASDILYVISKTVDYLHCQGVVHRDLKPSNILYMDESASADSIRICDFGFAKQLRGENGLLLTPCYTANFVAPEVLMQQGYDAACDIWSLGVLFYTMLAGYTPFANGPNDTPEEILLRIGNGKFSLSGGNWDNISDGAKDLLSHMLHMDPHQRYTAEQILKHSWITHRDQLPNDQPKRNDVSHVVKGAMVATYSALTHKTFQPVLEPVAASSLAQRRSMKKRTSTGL", "settings": "read-out: Percent Control"}, "[28]": {"target": "468 kinases including some pathogenic mutants (Homo sapiens, UniProt Q9NQU5)", "settings": "PAK6 (Entrez PAK6), 1000 nM; read-out: Percent Control"}, "[29]": {"target": "468 kinases including some pathogenic mutants (Homo sapiens, UniProt Q9BXA7)", "sequence (Q9BXA7 whole entry, change not shown)": "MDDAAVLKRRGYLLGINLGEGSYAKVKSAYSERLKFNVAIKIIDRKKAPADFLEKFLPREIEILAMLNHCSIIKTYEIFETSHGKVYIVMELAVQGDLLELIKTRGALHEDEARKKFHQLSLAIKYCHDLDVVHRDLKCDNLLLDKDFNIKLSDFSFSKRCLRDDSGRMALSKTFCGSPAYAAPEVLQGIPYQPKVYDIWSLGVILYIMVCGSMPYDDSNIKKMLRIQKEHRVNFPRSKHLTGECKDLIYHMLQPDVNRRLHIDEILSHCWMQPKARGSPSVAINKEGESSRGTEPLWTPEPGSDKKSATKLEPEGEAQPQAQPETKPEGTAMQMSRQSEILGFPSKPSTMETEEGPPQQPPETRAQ", "settings": "TSSK1B (Entrez TSSK1B), 100 nM; read-out: Percent Control"}}, "data": [{"smiles": "CN1C(=O)[C@@H](N2CCc3c(nn(Cc4ccccc4)c3C(N)=O)C2=O)COc2cc(Cl)ccc21", "note": "[Compound 10, (S)-2-benzyl-6-(8-chloro-5-methyl-4-oxo-2,3,4,5-tetrahydrobenzo[b][1,4]oxazepin-3-yl)-7-oxo-4,5,6,7-tetrahydro-2H-pyrazolo[3,4-c]pyridine-3-carboxamide]", "values": [{"measurement": "remaining activity at 0.1 µM", "setting": "[1]", "value": 65, "unit": "%"}, {"measurement": "remaining activity at 0.1 µM", "setting": "[2]", "value": 58, "unit": "%"}, {"measurement": "remaining activity at 0.1 µM", "setting": "[3]", "value": 66, "unit": "%"}, {"measurement": "remaining activity at 0.1 µM", "setting": "[4]", "value": 79, "unit": "%"}, {"measurement": "remaining activity at 1 µM", "setting": "[5]", "value": 100, "unit": "%"}, {"measurement": "remaining activity at 0.1 µM", "setting": "[6]", "value": 91, "unit": "%"}, {"measurement": "remaining activity at 0.1 µM", "setting": "[7]", "value": 88, "unit": "%"}, {"measurement": "remaining activity at 1 µM", "setting": "[8]", "value": 100, "unit": "%"}, {"measurement": "remaining activity at 0.1 µM", "setting": "[9]", "value": 100, "unit": "%"}, {"measurement": "remaining activity at 0.1 µM", "setting": "[10]", "value": 81, "unit": "%"}, {"measurement": "remaining activity at 1 µM", "setting": "[11]", "value": 100, "unit": "%"}, {"measurement": "remaining activity at 0.1 µM", "setting": "[12]", "value": 89, "unit": "%"}, {"measurement": "remaining activity at 1 µM", "setting": "[13]", "value": 100, "unit": "%"}, {"measurement": "remaining activity at 0.1 µM", "setting": "[14]", "value": 95, "unit": "%"}, {"measurement": "remaining activity at 0.1 µM", "setting": "[15]", "value": 84, "unit": "%"}, {"measurement": "remaining activity at 0.1 µM", "setting": "[16]", "value": 92, "unit": "%"}, {"measurement": "remaining activity at 0.1 µM", "setting": "[17]", "value": 78, "unit": "%"}, {"measurement": "remaining activity at 1 µM", "setting": "[18]", "value": 100, "unit": "%"}, {"measurement": "remaining activity at 0.1 µM", "setting": "[19]", "value": 79, "unit": "%"}, {"measurement": "remaining activity at 1 µM", "setting": "[20]", "value": 100, "unit": "%"}, {"measurement": "remaining activity at 0.1 µM", "setting": "[21]", "value": 77, "unit": "%"}, {"measurement": "remaining activity at 0.1 µM", "setting": "[22]", "value": 88, "unit": "%"}, {"measurement": "remaining activity at 0.1 µM", "setting": "[23]", "value": 89, "unit": "%"}, {"measurement": "remaining activity at 0.1 µM", "setting": "[24]", "value": 72, "unit": "%"}, {"measurement": "remaining activity at 0.1 µM", "setting": "[25]", "value": 88, "unit": "%"}, {"measurement": "remaining activity at 0.1 µM", "setting": "[26]", "value": 67, "unit": "%"}, {"measurement": "remaining activity at 1 µM", "setting": "[27]; RSK4(Kin.Dom.1-N-terminal) (Entrez RPS6KA6), 1000 nM", "value": 100, "unit": "%"}, {"measurement": "remaining activity at 0.1 µM", "setting": "[27]; RSK4(Kin.Dom.2-C-terminal) (Entrez RPS6KA6), 100 nM", "value": 90, "unit": "%"}, {"measurement": "remaining activity at 1 µM", "setting": "[28]", "value": 100, "unit": "%"}, {"measurement": "remaining activity at 0.1 µM", "setting": "[29]", "value": 83, "unit": "%"}]}]}
